Series [1] in a line: Pharmacokinetics in mice (plasma and brain levels, LC-MS). It counts as in vivo. The settings on record: mouse. How it is done: To prepare for in vivo studies, we investigated the pharmacokinetic properties of compound 6. […] For comparison, we determined the plasma and brain loxapine levels. […] Collectively, the pharmacological and pharmacokinetic profiles of compound 6 make it an excellent molecule for in vivo pharmacodynamic studies.
Pharmacokinetic experiments were performed by Bienta (Enamine Biology Services, Kiev, Ukraine). Study design, animal selection, handling, and treatment were performed in accordance with the Enamine PK study protocols and the Institutional Animal Care and Use Guidelines. Male C57BL/6J mice (11–16 weeks old) were used in this study. The animals were fasted for 4 h before dosing. […] Each timepoint treatment group included three animals, and a control group was employed, including one animal.
Before collecting blood and brain tissue, the mice were anesthetized with 2,2,2‐tribromoethanol (150 mg kg^−1 i.p.). In studies with i.p. compound administration, the chest was opened, an incision was made in the right atrium, whole blood was collected into tubes containing K2EDTA, and the animals were perfused with saline (10 mL) prior to the excision of the brain tissue (left lobe). In studies with p.o. or i.v. delivery of compounds, blood was collected from the orbital sinus in microtainers containing K3EDTA, the animals were sacrificed by cervical dislocation, and the brain tissue (left lobe) was excised. After collection, the blood samples were centrifuged for 10 min at 3000 rpm, and the brain samples were weighed. All samples were immediately processed, flash‐frozen, and stored at −70 °C until subsequent analysis.
The compound levels in the plasma and brain samples were determined using liquid chromatography–tandem mass spectrometry (LC‐MS/MS) by a staff member from Bienta. Pharmacokinetic data analysis was performed using non‐compartmental, bolus injection, or extravascular input analysis models with WinNonlin 5.2 (PharSight). Data below the lower limit of quantitation were presented as missing data to improve the validity of the half‐life calculations. For each treatment condition, the final concentration values obtained at each time point were analyzed for outliers using Grubbs' test, with the level of significance set at p < 0.05. The sum of the AUC0‐inf (area under the concentration‐time curve from zero to time infinity) was used to estimate the ratiobrain/plasma (concentration ratio of the compound in the brain and plasma).

A further series concerns the target T1, human D2S receptor (Homo sapiens, UniProt P14416).
T1 construct: expressed in transfected cells; host or cells: CHO
Description: [3H]-spiperone competition binding assay, D2. On the procedure:
(§1) CHO cells stably expressing human dopamine D2short (D2R) and D3 receptor (D3R) were washed and harvested using PBS. […] The cell membrane homogenate was centrifuged (20 000 × g, 20 min, 4 °C), and the resulting cell pellet was resuspended in the binding buffer. Crude membrane extracts were kept at −80 °C until use. Before starting the experiments, cell membranes were thawed, homogenized by sonication (3 × 10 s), and stored in an ice‐cold binding buffer. […] Assays were performed at least in triplicate with appropriate concentrations ranging from 0.01 nM to 100 µM of the test compound. Non‐specific binding was determined using 10 µM haloperidol. By filtering through GF/B filters pretreated with 0.3% (m/v) polyethyleneimine, the bound radioligand was separated from free radioligand using a cell harvester. Radioactivity was measured using liquid scintillation counting. Data were evaluated using the GraphPad Prism 9 software (San Diego, CA, USA) with a nonlinear regression fit.

For another series, the target named is T2, human D3 receptor (Homo sapiens, UniProt P35462).
T2 construct: expressed in transfected cells; host or cells: CHO
T2 sequence (P35462 whole entry): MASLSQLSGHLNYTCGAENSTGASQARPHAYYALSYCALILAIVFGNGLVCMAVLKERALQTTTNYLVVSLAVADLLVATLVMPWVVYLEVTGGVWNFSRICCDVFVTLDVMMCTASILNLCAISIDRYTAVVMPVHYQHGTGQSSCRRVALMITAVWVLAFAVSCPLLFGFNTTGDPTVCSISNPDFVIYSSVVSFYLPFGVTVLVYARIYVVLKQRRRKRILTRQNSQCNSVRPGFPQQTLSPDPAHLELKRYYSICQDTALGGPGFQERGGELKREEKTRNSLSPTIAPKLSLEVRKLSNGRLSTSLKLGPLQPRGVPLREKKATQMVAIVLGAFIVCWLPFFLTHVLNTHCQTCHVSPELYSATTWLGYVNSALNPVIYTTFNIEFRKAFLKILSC
Description: [3H]-spiperone competition binding assay, D3. Conditions: for Ki: mean [CI 95%]. On the procedure:
as §1

Series [2] in a line: Metabolic stability assay in rat liver microsomes. It counts as in vitro ADME. Conditions: for metabolic stability: 10 µM, 15, 30 and 60 min. How it is done: We next assessed the metabolic stability of these compounds (10 µM) in rat liver microsomes (Figure 2A). […] Therefore, we assumed that the occupation of metabolically labile sites at the aromatic core and the reduction in electron density at the oxidizable nitrogen atom of the piperazine ring might increase metabolic stability. Indeed, both the introduction of fluorine at R^2 and the introduction of an electron‐withdrawing carboxylic acid linker at R^3 improved metabolic stability. The substitution of chlorine with a trifluoromethyl group at R^1 was also beneficial. In contrast, homopiperazine and hydroxy linkers were metabolically labile.
The solubilized test compound (5 µL, final concentration 10 µM) was preincubated at 37 °C in 432 µL phosphate buffer (0.1 M, pH 7.4) together with 50 µL NADPH regenerating system (30 mM glucose‐6‐phosphate, 4 U mL^−1 glucose 6‐phosphate dehydrogenase, 10 mM NADP, and 30 mM MgCl2). After 5 min, the reaction started upon the addition of 13 µL of microsome mix from the liver of Sprague‐Dawley rats (Invitrogen; 20 mg protein per mL in 0.1 M phosphate buffer) in a shaking water bath at 37 °C. The reaction was stopped by adding 500 µL ice‐cold methanol at 0, 15, 30, and 60 min. The samples were centrifuged at 5000 × g for 5 min at 4 °C and the test compound was quantified from the supernatants by HPLC; the composition of the mobile phase was adapted to the test compound in a range of MeOH 40−90% and water (0.1% formic acid) 10−60%. Flow rate: 1 mL min^−1; stationary phase: Purospher STAR, RP18, 5 µm, 125 × 4; precolumn: Purospher STAR, RP18, 5 µm, 4 × 4; detection wavelength: 254 and 280 nm; injection volume: 50 µL. Control samples were used to evaluate the stability of the test compounds in the reaction mixture. The first control was without NADPH, which is needed for the enzymatic activity of the microsomes, the second control was with inactivated microsomes (incubated for 20 min at 90 °C), and the third control was without the test compound (to determine the baseline). The amounts of test compounds were quantified using an external calibration curve.
(Microsomes from liver hold many membrane-bound enzymes, among them those of drug oxidation.)

In the next series the test system is Slack−/− mice. Description: Chloroquine-induced itch behavior, Slack knockout mice. It counts as in vivo, mouse. How it is done:
We then assessed the antipruritic efficacy of compound 6 in a model of histamine‐independent itching induced by the antimalarial drug chloroquine.
Three to four days before the day of the experiment, the fur on the dorsolateral aspect of the neck was shaved under brief isoflurane anesthesia. On the testing day, the mice were habituated to a Plexiglas cylinder (30 cm in diameter) for 30 min. Compound 6 hydrochloride or vehicle were i.p. or p.o. administered, and 15 min later, the pruritogens chloroquine (200 µg), SLIGRL (100 µg), β‐alanine (100 µg), or histamine (800 µg), all dissolved in 0.9% saline (20 µL), were injected subcutaneously into the nape of the neck.^[ [29] ^] Number of scratching bouts directed toward the nape of the neck was assessed over 30 min by videotaping. In experiments with the Slack inhibitor, compound 31 (ref. [27]; 30 mg kg^−1 in 0.9% NaCl with 2% DMSO and 10% Kolliphor) was i.p. administered 5 min prior to compound 6.

Where [3] appears, read: male, C57BL/6J, ip, I.P. 10 mg/kg, brain.
Setting [4] is: male, C57BL/6J, ip, I.P. 10 mg/kg, plasma.
The mark [5] stands for this setting: male, C57BL/6J, iv, I.V. 1 mg/kg, brain.
Where [6] appears, read: male, C57BL/6J, iv, I.V. 1 mg/kg, plasma.
Setting [7] is: male, C57BL/6J, po, P.O. 10 mg/kg, brain.
[8] abbreviates: male, C57BL/6J, po, P.O. 10 mg/kg, plasma.
The mark [9] stands for this setting: male, C57BL/6J, ip, I.P. 2.5 mg/kg, brain.
The mark [10] stands for this setting: male, C57BL/6J, ip, I.P. 2.5 mg/kg, plasma.

Like-named read-outs stand apart in the source and are kept apart here.

T1 sequence (P14416 1-414 isoform P14416-2): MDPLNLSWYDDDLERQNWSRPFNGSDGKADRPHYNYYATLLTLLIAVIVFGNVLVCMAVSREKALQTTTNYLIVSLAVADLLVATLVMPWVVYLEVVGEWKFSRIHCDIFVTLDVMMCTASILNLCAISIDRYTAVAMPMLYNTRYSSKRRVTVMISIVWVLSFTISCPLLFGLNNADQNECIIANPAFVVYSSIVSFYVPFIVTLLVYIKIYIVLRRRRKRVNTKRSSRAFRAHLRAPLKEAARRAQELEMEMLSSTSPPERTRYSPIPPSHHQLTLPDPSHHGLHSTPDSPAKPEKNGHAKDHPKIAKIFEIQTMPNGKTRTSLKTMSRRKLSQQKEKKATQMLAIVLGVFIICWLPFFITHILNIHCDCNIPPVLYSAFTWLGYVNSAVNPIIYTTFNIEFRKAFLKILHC

One may read the AUC(0-inf) as the area under the concentration-time curve extrapolated to infinity. Higher therefore signals high exposure. Broadly, the Cmax is the highest concentration seen after dosing. By Tmax is commonly meant the time from dosing to the highest level. In general, Ki refers to a dissociation constant, usually derived from enzyme kinetics or from competition with a known ligand. Consider `O=C(O)COCCN1CCN(C2=Nc3ccccc3Oc3ccc(Cl)cc32)CC1` [Compound 6], for which the AUC(0-inf) in series [1] (setting [3]) is 6780 ng·h/mL; in series [1] (setting [4]) it was 5600 ng·h/mL; in series [1] (setting [5]), 520 ng·h/mL; in series [1] (setting [6]), 473 ng·h/mL; in series [1] (setting [7]) it was 3750 ng·h/mL; in series [1] (setting [8]), 4070 ng·h/mL. Moreover, the Cmax was determined as 5490 ng/mL in series [1] (setting [3]); 6280 ng/mL in series [1] (setting [4]); 493 ng/mL in series [1] (setting [5]); 562 ng/mL in series [1] (setting [6]); 2460 ng/mL in series [1] (setting [7]); 3140 ng/mL in series [1] (setting [8]). Besides, the Tmax in series [1] (setting [3]), in series [1] (setting [4]), in series [1] (setting [5]), in series [1] (setting [7]) and in series [1] (setting [8]) was 15 min each time. Besides, the half-life is 39.7 min in series [1] (male, C57BL/6J, ip, I.P. 10 mg/kg, brain, read-out: t1/2); 35 min in series [1] (male, C57BL/6J, ip, I.P. 10 mg/kg, plasma, read-out: t1/2); 62.1 min in series [1] (male, C57BL/6J, iv, I.V. 1 mg/kg, brain, read-out: t1/2); 52.5 min in series [1] (male, C57BL/6J, iv, I.V. 1 mg/kg, plasma, read-out: t1/2); roughly 35 min in series [1] (male, C57BL/6J, plasma and brain, ip, 10 mg kg−1 i.p., first-order kinetics, read-out: half-life in the plasma and brain); 71.9 min in series [1] (male, C57BL/6J, po, P.O. 10 mg/kg, brain, read-out: t1/2). The half-life in series [1] (male, C57BL/6J, po, P.O. 10 mg/kg, plasma, read-out: t1/2) was 67.4 min. Further, the “blood–brain barrier crossing” value in series [1] (10 mg kg−1 i.p.) was “readily crossed the blood–brain barrier”. The “fold lower affinity against D2 as compared to loxapine” value at human D2S receptor is “≈ 40 fold”. Further, the Ki on human D2S receptor (mean [CI 95%]) was determined as 1280 nM; at human D3 receptor, 3520 nM. The “fold lower affinity against D3 as compared to loxapine” value on human D3 receptor was “≈ 31 fold”. Moreover, the metabolic stability result in series [2] is recorded as “highest metabolic stabilities”. The chloroquine-induced scratching result in the series on Slack−/− mice (Slack−/− mice, i.p.) is listed as “did not significantly alter”.
`CN1CCN(C2=Nc3ccccc3Oc3ccc(Cl)cc32)CC1` [Loxapine, reference compound]: the Kp in series [1] (male, C57BL/6J, brain and plasma, ip, 2.5 mg kg−1 i.p., from AUC0-inf, read-out: ratio brain/plasma) was 5.12. Besides, in series [1] (setting [9]), the AUC(0-inf) was 913 ng·h/mL, the peak level (Cmax) was 493 ng/mL and the Tmax was 15 min. For the same molecule, the half-life in series [1] (male, C57BL/6J, ip, I.P. 2.5 mg/kg, brain, read-out: t1/2) came out at 82.2 min. Also, in series [1] (setting [10]), the AUC(0-inf) was 178 ng·h/mL, the Cmax turned out to be 143 ng/mL and the Tmax was 15 min. The half-life in series [1] (male, C57BL/6J, ip, I.P. 2.5 mg/kg, plasma, read-out: t1/2) turned out to be 61.9 min. Besides, the Ki at human D3 receptor is 112 nM. Moreover, the metabolic stability result in series [2] is listed as “metabolized rapidly”. Besides, in series [2] (10 µM, after 15 min), the drug remaining unmodified came to 6%. Besides, the chloroquine-induced scratching behavior result in the series on Slack−/− mice (Slack knockout mice, systemic low dose, preliminary experiments) is recorded as “did not affect”.

Source of the values: paper PMC11022729 (Advanced Science, 2024).
